Results taken from US5696115A, “Method for treating nicotine withdrawal” (Eli Lilly and Company, priority 1995, dated 1997).

Experiments:
[1] = detection of radiolabelled compound in saliva; assay type: in vivo
[2] = known; cited from earlier work
[3] = tested on: rats; assay: in vivo observation, overdose in rats; conditions: rats exposed to an overdose
[4] = tested on: clinical subjects; assay: clinical observation of pupil response; assay type: in vivo, human; conditions: rather than the expected pupilary dilation
[5] = tested on: muscarinic cholinergic receptor; assay: pharmacological studies, muscarinic cholinergic receptor activity
[6] = tested on: people addicted to nicotine; conditions: cited from earlier work

For `Cc1cc2c(s1)Nc1ccccc1N=C2N1CCN(C)CC1` [2-methyl-4-(4-methyl-1-piperazinyl)-10H-thieno[2,3-b][1,5]benzodiazepine], the detection in saliva [1] is listed as “can be detected in the saliva”, the antipsychotic activity [2] is listed as “can provide antipsychotic activity” and the extrapyramidal symptoms [2] is listed as “less likely to induce extrapyramidal symptoms”. For the same compound, the salivation [3] was “significant salivation”, the pupilary response [4] was “pupilary constriction” and the “muscarinic receptor subtype profile” value ([5]; in vivo animal and clinical observations) was “complex muscarinic receptor subtype profile”. The “muscarinic cholinergic receptor activity” value ([5]; pharmacological studies) was “has muscarinic cholinergic receptor activity”.

For `Clc1cccc(Cl)c1N=C1NCCN1` [clonidine], the effectiveness versus placebo ([6]; clonidine treatment for six weeks) is listed as “more effective than placebo, but only for women”.

In the case of `CNC1(C)C2CCC(C2)C1(C)C` (stereo not shown) [mecamylamine], the undesirable side effects ([6]; receptor antagonist therapy) is given as “other undesirable side effects” and the “effect on tobacco consumption” value ([6]; receptor antagonist therapy, short term effect) is given as “increasing tobacco consumption”.
